This test has as its system HCV replication. The test can be described thus: HCV replicon assay (luciferase) in ET (Huh-lucubineo-ET) cell line. In kind it is cell-based. Conditions: Hepatitis C virus, tested at 5 μM; ET replicon cells; luciferase activity measured 48-72 hours later; relative to no compound control. On the procedure:
A cell line, ET (Huh-lucubineo-ET) was used for screening of compounds of the present invention for inhibiting HCV replication. The ET cell line was stably transfected with RNA transcripts harboring a I389luc-ubi-neo/NS3-3′/ET; replicon with firefly luciferase-ubiquitin-neomycin phosphotransferase fusion protein and EMCV-IRES driven NS3-5B polyprotein containing the cell culture adaptive mutations (E1202G; T12801; K1846T) (Krieger at al, 2001 and unpublished). The ET cells were grown in DMEM (Dulbeco's Modified Eagle's Medium), supplemented with 10% fetal calf serum, 2 mM Glutamine, Penicillin (100 IU/mL)/Streptomycin (100 μg/mL), 1× nonessential amino acids, and 250 μg/mL G418 (“Geneticin”). They were all available through Life Technologies (Bethesda, Md.). The cells were plated at 0.5-1.0×10^4 cells/well in the 96 well plates and incubated for 24 hrs before adding testing compounds. Then the compounds were added to the cells to achieve a final concentration of 0.1 nM to 50 μM and a final DMSO concentration of 0.5%. Luciferase activity were measured 48-72 hours later by adding a lysis buffer and the substrate (Catalog number Glo-lysis buffer E2661 and Bright-Glo luciferase system E2620 Promega, Madison, Wis.). Cells should not be too confluent during the assay. Percent inhibition of replication was plotted relative to no compound control. Under the same condition, cytotoxicity of the compounds was determined using cell proliferation reagent, WST-1 (Roche, Germany). The compounds showing antiviral activities, but no significant cytotoxicities were chosen to determine EC50 and TC50. For these determinations, a 10 point 2-fold serial dilution for each compound was used, which spans a concentration range of 1000 fold. EC50 and similarly TC50 values were calculated by fitting % inhibition at each concentration to the following equation:
% inhibition=100%/[(IC50/[I])^b+1]
where b is Hill's coefficient.
In some preferred embodiments compounds of Formula I will have a % inhibition of at least 20% when tested at 5 μM. In other embodiments the compounds of Formula I will have a % inhibition of at least 50% when tested at 5 μM.
A general note: Replicon systems follow genome replication, usually without infectious particles.

For orientation: inhibition means the relative decrease from the control value, in per cent. Read a high inhibition as a response far below the control. In turn, `O=C(Nc1nc(-c2ccccc2)cs1)[C@@H]1Cc2ccccc2N1C(=O)OCc1ccccc1` [Compound 7023, (S)-2-(4-Phenyl-thiazol-2-ylcarbamoyl)-2,3-dihydro-indole-1-carboxylic acid benzyl ester] registered an inhibition at 5 µM of 78.5%.

`CC(C)(C)OC(=O)N1C(c2cccnc2)SC[C@H]1C(=O)Nc1nc(-c2ccc(C(=O)NC3CC3)cc2)cs1` (single isomer, unassigned) [Compound 7032, 4-[4-(4-Cyclopropylcarbamoyl-phenyl)-thiazol-2-ylcarbamoyl]-2-pyridin-3-yl-thiazolidine-3-carboxylic acid tert-butyl ester]: the inhibition at 5 µM turned out to be 99.2%. The figure for `O=C(NC1CC1)c1ccc(-c2csc(NC(=O)[C@@H]3CSC(c4ccc(F)cc4)N3C(=O)OCc3ccccc3)n2)cc1` (mixture of isomers) [Compound 7013, (R)-4-[4-(4-Cyclopropylcarbamoyl-phenyl)-thiazol-2-ylcarbamoyl]-2-(4-fluoro-phenyl)-thiazolidine-3-carboxylic acid benzyl ester] is 99.7%; for `O=C(Nc1cccnc1)c1ccc(-c2csc(NC(=O)[C@@H]3COC4(CCOCC4)N3C(=O)OCc3ccccc3)n2)cc1` [Compound 7140, 3-{4-[4-(Pyridin-3-ylcarbamoyl)-phenyl]-thiazol-2-ylcarbamoyl}-1,8-dioxa-4-aza-spiro[4.5]decane-4-carboxylic acid benzyl ester] it is 99.9%; for `NC(=O)c1ccc(NC(=O)[C@@H]2CSC(c3ccncc3)N2C(=O)OCc2ccccc2)cc1` (some centres unmarked) [Compound 7134, 4-(4-carbamoyl-phenylcarbamoyl)-2-pyridin-4-yl-thiazolidine-3-carboxylic acid benzyl ester] it is 13.6%. Then `O=C(NC1CC1)c1ccc(-c2csc(NC(=O)[C@@H]3CSC(C4CCOCC4)N3C(=O)[C@H]3CCCO3)n2)cc1` (some centres unmarked) [Compound 7074, 3-(Tetrahydro-furan-2-carbonyl)-2-(tetrahydro-pyran-4-yl)-thiazolidine-4-carboxylic acid [4-(4-cyclopropylcarbamoyl-phenyl)-thiazol-2-yl]-amide], with 99%; and `O=C(NC1CC1)c1ccc(-c2csc(NC(=O)[C@@H]3CSC(c4ccnc5ccccc45)N3C(=O)OCc3ccccc3)n2)cc1` (mixture of isomers) [Compound 7007, (R)-4-[4-(4-Cyclopropylcarbamoyl-phenyl)-thiazol-2-ylcarbamoyl]-2-quinolin-4-yl-thiazolidine-3-carboxylic acid benzyl ester], with 100%. The figure for `CC(C)(C)OC(=O)N1CCCC(C2SC[C@@H](C(=O)Nc3nc(-c4ccc(C(=O)NC5CC5)cc4)cs3)N2C(=O)OCc2ccccc2)C1` (mixture of isomers) [Compound 7098, 3-{3-Benzyloxycarbonyl-4-[4-(4-cyclopropylcarbamoyl-phenyl)-thiazol-2-ylcarbamoyl]-thiazolidin-2-yl}-piperidine-1-carboxylic acid tert-butyl ester] is 99.9%; for `O=C(NC1CC1)c1ccc(NC(=O)[C@@H]2CSC(C3CCOCC3)N2C(=O)OCc2ccccc2)cc1` (some centres unmarked) [Compound 7107, 4-(4-Cyclopropylcarbamoyl-phenylcarbamoyl)-2-(tetrahydro-pyran-4-yl)-thiazolidine-3-carboxylic acid benzyl ester] it is 10%. Regarding `NC(=O)c1cccc(NC(=O)[C@@H]2CSC(c3ccncc3)N2C(=O)OCc2ccccc2)c1` (some centres unmarked) [Compound 7127, 4-(3-carbamoyl-phenylcarbamoyl)-2-pyridin-4-yl-thiazolidine-3-carboxylic acid benzyl ester], testing at 5 µM gave an inhibition of 25.7%.

As to `O=C(Nc1ccccc1)[C@@H]1CSC(c2cccnc2)N1C(=O)OCc1ccccc1` (some centres unmarked) [Compound 7018, 4-Phenylcarbamoyl-2-pyridin-3-yl-thiazolidine-3-carboxylic acid benzyl ester], the inhibition at 5 µM was determined as 47.6%. Then `Cn1ccnc1C(=O)N1C(C2CCOCC2)SC[C@H]1C(=O)Nc1nc(-c2ccc(C(=O)NC3CC3)cc2)cs1` (some centres unmarked) [Compound 7092, 3-(1-Methyl-1H-imidazole-2-carbonyl)-2-(tetrahydro-pyran-4-yl)-thiazolidine-4-carboxylic acid [4-(4-cyclopropylcarbamoyl-phenyl)-thiazol-2-yl]-amide], with 89.4%.

On to `O=C(NC1CC1)c1ccc(-c2csc(NC(=O)[C@@H]3CSC(c4ccccn4)N3C(=O)OCc3ccccc3)n2)cc1` (stereo partly drawn) [Compound 7010, (R)-4-[4-(4-Cyclopropylcarbamoyl-phenyl)-thiazol-2-ylcarbamoyl]-2-pyridin-2-yl-thiazolidine-3-carboxylic acid benzyl ester], for which 5 µM produced 98.1% inhibition. The figure for `O=C(NC1CC1)c1ccc(-c2csc(NC(=O)[C@@H]3CS[C@@H](c4cccnc4)N3C(=O)OCc3ccccc3)n2)cc1` [Compound 7009, (2S,4R)-4-[4-(4-Cyclopropylcarbamoyl-phenyl)-thiazol-2-ylcarbamoyl]-2-pyridin-3-yl-thiazolidine-3-carboxylic acid benzyl ester] is 99.9%. As for `COC(=O)c1ccc(C2SC[C@@H](C(=O)Nc3nc(-c4ccc(C(=O)NC5CC5)cc4)cs3)N2C(=O)OCc2ccccc2)cc1` (mixture of isomers) [Compound 7051, (R)-4-[4-(4-Cyclopropylcarbamoyl-phenyl)-thiazol-2-ylcarbamoyl]-2-(4-methoxycarbonyl-phenyl)-thiazolidine-3-carboxylic acid benzyl ester], at 5 µM the inhibition was 99.4%. The figure for `O=C(NC1CC1)c1ccc(-c2csc(NC(=O)[C@@H]3CSC(c4cnco4)N3C(=O)OCc3ccccc3)n2)cc1` (mixture of isomers) [Compound 7036, (R)-4-[4-(4-Cyclopropylcarbamoyl-phenyl)-thiazol-2-ylcarbamoyl]-2-oxazol-5-yl-thiazolidine-3-carboxylic acid benzyl ester] is 99.8%.

Take `O=C(NCCc1ccccc1)c1ccc(NC(=O)[C@@H]2CSC(c3ccncc3)N2C(=O)OCc2ccccc2)cc1` (stereo in doubt) [Compound 7113, 4-(4-Phenethylcarbamoyl-phenylcarbamoyl)-2-pyridin-4-yl-thiazolidine-3-carboxylic acid benzyl ester]: the inhibition at 5 µM was found to be 86.5%. `O=C(Nc1ccccc1)c1cccc(NC(=O)[C@@H]2CSC(c3ccncc3)N2C(=O)OCc2ccccc2)c1` (stereo in doubt) [Compound 7112, 4-(3-Phenylcarbamoyl-phenylcarbamoyl)-2-pyridin-4-yl-thizolidine-3-carboxylic acid benzyl ester] gave an inhibition at 5 µM of 64.2%.

For `O=C(NC1CC1)c1ccc(-c2csc(NC(=O)[C@@H]3CSC(c4ccnc(O)c4)N3C(=O)OCc3ccccc3)n2)cc1` (mixture of isomers) [Compound 7049, (R)-4-[4-(4-Cyclopropylcarbamoyl-phenyl)-thiazol-2-ylcarbamoyl]-2-(2-hydroxy-pyridin-4-yl)-thiazolidine-3-carboxylic acid benzyl ester], testing at 5 µM gave an inhibition of 98.8%. The figure for `CNC(=O)CCC1SC[C@@H](C(=O)Nc2nc(-c3ccc(C(=O)NC4CC4)cc3)cs2)N1C(=O)OCc1ccccc1` (stereo in doubt) [Compound 7091, 4-[4-(4-Cyclopropylcarbamoyl-phenyl)-thiazol-2-ylcarbamoyl]-2-(2-methylcarbamoyl-ethyl)-thiazolidine-3-carboxylic acid benzyl ester] is 100%; for `COC(=O)c1cccc(C2SC[C@@H](C(=O)Nc3nc(-c4ccc(C(=O)NC5CC5)cc4)cs3)N2C(=O)OCc2ccccc2)c1` (mixture of isomers) [Compound 7057, (R)-4-[4-(4-Cyclopropylcarbamoyl-phenyl)-thiazol-2-ylcarbamoyl]-2-(3-methoxycarbonyl-phenyl)-thiazolidine-3-carboxylic acid benzyl ester] it is 100%. Then `O=C(NC1CC1)c1ccc(-c2csc(NC(=O)[C@@H]3CSC(CC4CCOCC4)N3C(=O)OCc3ccccc3)n2)cc1` (mixture of isomers) [Compound 7004, (R)-4-[4-(4-Cyclopropylcarbamoyl-phenyl)-thiazol-2-ylcarbamoyl]-2-(tetrahydro-pyran-4-ylmethyl)-thiazolidine-3-carboxylic acid benzyl ester], with 99.9%; and `CN(C)C(=O)CCCCC1SC[C@@H](C(=O)Nc2nc(-c3ccc(C(=O)NC4CC4)cc3)cs2)N1C(=O)OCc1ccccc1` (mixture of isomers) [Compound 7125, 4-[4-(4-Cyclopropylcarbamoyl-phenyl)-thiazol-2-ylcarbamoyl]-2-(4-dimethylcarbamoyl-butyl)-thiazolidine-3-carboxylic acid benzyl ester], with 100%.
